For 13 compounds, IC50 and inhibition results are on record in US20010056184A1, “Pipecolinic acid derivatives, method of manufacturing the same and therapeutic agents containing these compounds” (priority 2000, published 2001).

Holding throughout (type): biochemical
Test [1] deals with T1, human fibroblasts derived MMP-1 (type I collagenase) (Homo sapiens, UniProt P03956).
T1 construct: human fibroblasts derived MMP-1 (Yagai Co. Ltd.) as enzyme; purchased Yagai Co. Ltd; host or cells: human fibroblasts
T1 sequence (P03956 100-469): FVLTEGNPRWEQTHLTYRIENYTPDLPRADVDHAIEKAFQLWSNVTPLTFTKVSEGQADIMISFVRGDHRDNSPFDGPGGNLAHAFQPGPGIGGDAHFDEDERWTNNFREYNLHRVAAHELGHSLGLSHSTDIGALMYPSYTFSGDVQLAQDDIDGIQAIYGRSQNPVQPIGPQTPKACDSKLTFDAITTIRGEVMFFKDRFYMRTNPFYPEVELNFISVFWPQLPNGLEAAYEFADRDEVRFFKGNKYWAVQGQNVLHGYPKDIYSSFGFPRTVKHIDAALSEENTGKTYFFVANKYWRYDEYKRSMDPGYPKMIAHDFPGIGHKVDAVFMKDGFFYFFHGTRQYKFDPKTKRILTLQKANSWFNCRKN
As to the kind of experiment: MMP-1 (type I collagenase) inhibitory activities, fluorogenic substrate enzyme assay. To be noted: for IC50: 37° C., 4 h, substrate 10 μM; for inhibition at 10 µM: at 10^−5M, NE means no effect, read-out: MMP-1 inhibition percent. As to the method: Examination 1: MMP-1 (type I collagenase) inhibitory activities.
Inhibitory activities of MMP-1 (type I collagenase) activities were estimated by enzyme assay using human fibroblasts derived MMP-1 (Yagai Co. Ltd.) as enzyme, and MOCAc-Pro-Leu-Gly-Leu-A2pr(Dnp)-Ala-Arg-NH2 (Peptide Research Center, 3163-v) as substrate. Thus, MMP-1 (0.01 U/ml), test compound (10^−10˜10^−5 M), and the substrate (10 μM) were incubated in 50 mM Tris-HCl buffer (pH 7.4) containing 0.2M NaCl, 10 mM CaCl2, 0.02% NaN3, and 0.05% Brij 35 at 37° C. for 4 h. The reaction was stopped by adding of 4 volumes of sodium acetate buffer (pH 4.0), and the degradation of substrate was calculated by measurement with a fluorescence intensity (λ ex 328 nm, λ em 393 nm). Inhibition of degradation of substrate in the presence of compound was determined by comparison with the degradation percent of substrate in the absence of compound, and concentration of 50% inhibition (IC50 value) was calculated.

The target of another test is T2, Δ MT1-MMP (Δ MMP-14) (Homo sapiens, UniProt P50281).
T2 construct: ProMT1-MMP cDNA encoded extracellular domain of pro Δ MT1-MMP was tranfected E. coli BL21DE3; made in house; host or cells: E. coli BL21DE3 (inclusion bodies, 8M urea, ion exchange)
Nature of the test: Δ MT1-MMP (Δ MMP-14) inhibitory activities, fluorogenic substrate enzyme assay. The following applies: 37° C., 30 min, substrate 10 μM; read-out: ΔMMP-14 IC50. The source says:
Examination 3: Δ MT1-MMP (Δ MMP-14) inhibitory activities.
ProMT1-MMP cDNA encoded extracellular domain of pro Δ MT1-MMP was tranfected E. coli BL21DE3, pro Δ MT1-MMP collected as inclusion body was solved using 8M urea, and it was pulified by ion exchenge column chlomatography. Inhibition of enzyme activities were estimated by enzyme assay using activated Δ MT1-MMP, obtained from activation of pro Δ MT1-MMP by 10 μ/ml tripsine, and MOCAc-Pro-Leu-Gly-Leu-A2pr(Dnp)-Ala-Arg-NH2 (Peptide Research Center, 3163-v) as substrate. Thus, Δ MT1-MMP, test compound (several concentrations), and the substrate (10 μM) were incubated in 50 mM Tris - HCl buffer (pH 7.4) containing 0.2M NaCl, 10 mM CaCl2, 0.02% NaN3, 0.05% Brij 35, and 10 μM leuipeputine at 37° C. for 30 min. The reaction was stopped by adding of 4 volumes of sodium acetate buffer (pH 4.0), and the degradation of substrate was calculated by measurement with a fluorescence intensity (λ ex 328 nm, λ em 393 nm). Inhibition of degradation of substrate in the presence of compound was determined by comparison with the degradation of substrate in the absence of compound, and concentration of 50% inhibition (IC50 value) was calculated.

For another test, the target named is T3, MMP-2 (gelatinase A) (Homo sapiens, UniProt P08253).
T3 construct: made in house; host or cells: COS-1 cells (secreted into culture medium)
T3 sequence (P08253 110-660): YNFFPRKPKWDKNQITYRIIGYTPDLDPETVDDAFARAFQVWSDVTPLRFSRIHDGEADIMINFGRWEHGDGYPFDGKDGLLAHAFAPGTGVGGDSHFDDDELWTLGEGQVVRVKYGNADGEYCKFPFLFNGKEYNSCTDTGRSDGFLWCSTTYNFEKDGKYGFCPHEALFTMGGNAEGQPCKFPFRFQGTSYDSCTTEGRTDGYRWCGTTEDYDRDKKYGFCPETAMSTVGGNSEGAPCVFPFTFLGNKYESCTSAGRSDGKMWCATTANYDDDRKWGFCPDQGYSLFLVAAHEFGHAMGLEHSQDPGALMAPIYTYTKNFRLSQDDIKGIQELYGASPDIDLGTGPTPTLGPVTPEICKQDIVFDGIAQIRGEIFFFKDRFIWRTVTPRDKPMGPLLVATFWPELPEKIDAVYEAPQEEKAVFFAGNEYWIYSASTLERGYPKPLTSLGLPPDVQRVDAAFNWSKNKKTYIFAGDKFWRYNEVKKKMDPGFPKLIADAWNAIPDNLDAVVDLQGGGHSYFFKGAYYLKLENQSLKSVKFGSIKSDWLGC
Nature of the test: MMP-2 (gelatinase A) inhibitory activities, fluorogenic substrate enzyme assay. The following applies: 42° C., 2 h, substrate 10 μM. On the procedure:
(§1) Examination 2: MMP-2 (gelatinase A) and MMP-9 (gelatinase B) inhibitory activities.
(§2) Pro MMP-2 was obtained from culture medium separated from human pro-MMP-2 cDNA tranfected COS-1 cells. Pro MMP-2 activated by 1 mM (4-aminophenyl) mercury acetic acid and MMP-9, derived human fibrosarcome (Yagai Co. Ltd.), were used as enzyme respectively. Inhibition of both enzyme activities were estimated by enzyme assay using MOCAc-Pro-Leu-Gly-Leu-A2pr(Dnp)-Ala-Arg-NH2 (Peptide Research Center, 3163-v) as substrate. Thus, MMP-2 or MMP-9 (0.01 U/ml), test compound (several concentrations), and the substrate (10 μM) were incubated in 50 mM Tris - HCl buffer (pH 7.4) containing 0.2M NaCl, 10 mM CaCl2, 0.02% NaN3, and 0.05% Brij 35 at 42° C. for 2 h (MMP-2), 3 h (MMP-9) respectively. Inhibition of degradation of substrate in the presence of compound was determined by comparison with the degradation of substrate in the absence of compound, and concentration of 50% inhibition (IC50 value) was calculated.

For the next test, the target named is T4, MMP-9 (gelatinase B) (Homo sapiens, UniProt P14780).
T4 construct: MMP-9, derived human fibrosarcome (Yagai Co. Ltd.), were used as enzyme respectively; purchased Yagai Co. Ltd; host or cells: human fibrosarcoma
As to the kind of experiment: MMP-9 (gelatinase B) inhibitory activities, fluorogenic substrate enzyme assay. The following applies: 42° C., 3 h, substrate 10 μM. As to the method:
as §1, §2

In general, IC50 refers to the concentration needed to halve the response being measured. Usually inhibition stands for the relative decrease from the control value, in per cent.

T4 sequence (P14780 94-707): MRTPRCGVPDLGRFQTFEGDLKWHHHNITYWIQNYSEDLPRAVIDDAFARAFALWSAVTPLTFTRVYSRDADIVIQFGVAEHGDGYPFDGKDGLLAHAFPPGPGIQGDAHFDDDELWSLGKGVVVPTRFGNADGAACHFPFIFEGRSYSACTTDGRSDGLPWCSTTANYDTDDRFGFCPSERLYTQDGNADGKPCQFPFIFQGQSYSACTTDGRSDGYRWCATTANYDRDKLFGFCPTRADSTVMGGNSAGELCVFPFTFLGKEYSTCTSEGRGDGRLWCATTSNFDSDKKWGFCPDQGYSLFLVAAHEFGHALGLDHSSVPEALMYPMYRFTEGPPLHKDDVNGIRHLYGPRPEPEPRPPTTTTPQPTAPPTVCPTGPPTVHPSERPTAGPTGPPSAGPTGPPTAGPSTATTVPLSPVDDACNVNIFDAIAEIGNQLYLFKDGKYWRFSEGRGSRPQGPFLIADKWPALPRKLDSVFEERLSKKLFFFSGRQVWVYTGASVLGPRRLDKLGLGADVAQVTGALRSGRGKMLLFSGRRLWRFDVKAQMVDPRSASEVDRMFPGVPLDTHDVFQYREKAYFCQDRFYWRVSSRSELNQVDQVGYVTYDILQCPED

For the compound `CC(C)CCC(=O)N[C@@H]1CCN(S(=O)(=O)c2ccc(-c3ccc(O)cc3)cc2)[C@@H](C(=O)NO)C1` [Compound 57, (2R, 4R)-2-Hydroxyaminocarbonyl-1-[4-(4-hydroxyphenyl)benzenesulfonyl]-4-(4-methylpentanoylamino) piperidine], the IC50 in test [1] came out at 0.46 µM; on Δ MT1-MMP (Δ MMP-14), 0.1 µM; at MMP-2 (gelatinase A) it was 0.0018 µM; on MMP-9 (gelatinase B), 0.011 µM.

Take `COc1ccc(-c2ccc(S(=O)(=O)N3CC[C@@H](NC(=O)c4ccccc4)C[C@@H]3C(=O)NO)cc2)cc1` [Compound 59, (2R, 4R)-4-Benzoylamino-2-hydroxyaminocarbonyl-1-[4-(4-methoxyphenyl)benzenesulfonyl]-piperidine]: the inhibition at 10 µM in test [1] was found to be 57.6%. Also, the figures for the half-inhibitory concentration (IC50) at Δ MT1-MMP (Δ MMP-14), against MMP-2 (gelatinase A) and at MMP-9 (gelatinase B) were 0.095 µM, 0.18 µM and 0.011 µM, respectively.

`O=C(N[C@@H]1CCN(S(=O)(=O)c2ccc(-c3ccc(O)cc3)cc2)[C@@H](C(=O)NO)C1)c1ccccc1` [Compound 60, (2R, 4R)-4-Benzoylamino-2-hydroxyaminocarbonyl-1-[4-(4-hydroxyphenyl)benzenesulfonyl]-piperidine]: the IC50 was 4.9 µM in test [1], 0.13 µM at Δ MT1-MMP (Δ MMP-14), 0.0029 µM against MMP-2 (gelatinase A) and 0.89 µM on MMP-9 (gelatinase B).

As for `COc1ccc(-c2ccc(S(=O)(=O)N3CC[C@@H](NCCCC(C)C)C[C@@H]3C(=O)NO)cc2)cc1` [Compound 61, (2R, 4R)-2-Hydroxyaminocarbonyl-1-[4-(4-methoxyphenyl)benzenesulfonyl]-4-(4-methylpentylamino)-piperidine], the inhibition at 10 µM in test [1] worked out at 44.6%. For the same compound, the figures for the IC50 on Δ MT1-MMP (Δ MMP-14), against MMP-2 (gelatinase A) and against MMP-9 (gelatinase B) were 0.049 µM, 0.0027 µM and 0.019 µM, respectively.

On to `COc1ccc(CN[C@@H]2CCN(S(=O)(=O)c3ccc(-c4ccc(OC)cc4)cc3)[C@@H](C(=O)NO)C2)cc1` [Compound 62, (2R, 4R)-2-Hydroxyaminocarbonyl-4-(4-methoxybenzylamino)-1-[4-(4-methoxyphenyl)benzenesulfonyl]-piperidine], for which the IC50 in test [1] was 0.87 µM; on Δ MT1-MMP (Δ MMP-14), 0.045 µM; on MMP-2 (gelatinase A), 0.00093 µM; on MMP-9 (gelatinase B), 0.0032 µM.

Consider `CC(C)CCC(=O)N[C@@H]1CCN(S(=O)(=O)c2ccc(O)cc2)[C@@H](C(=O)NO)C1` [Compound 63], for which the IC50 in test [1] was 0.51 µM; at Δ MT1-MMP (Δ MMP-14), 0.017 µM; on MMP-2 (gelatinase A), 0.028 µM; against MMP-9 (gelatinase B) it was 0.031 µM.

Take `COc1ccc(-c2ccc(S(=O)(=O)N3CC[C@@H](NC(C)=O)C[C@@H]3C(=O)NO)cc2)cc1` [Compound 64, (2R, 4R)-4-Acetylamino-2-hydroxyaminocarbonyl-1-[4-(4-methoxyphenyl)benzenesulfonyl]-piperidine]: the IC50 worked out at 0.65 µM in test [1], 0.0089 µM on Δ MT1-MMP (Δ MMP-14), 0.00091 µM on MMP-2 (gelatinase A) and 0.00072 µM on MMP-9 (gelatinase B).

Take `CC(=O)N[C@@H]1CCN(S(=O)(=O)c2ccc(-c3ccc(O)cc3)cc2)[C@@H](C(=O)NO)C1` [Compound 65, (2R, 4R)-4-Acetylamino-2-hydroxyaminocarbonyl-1-[4-(4-hydroxyphenyl)benzenesulfonyl]-piperidine]: the IC50 in test [1] turned out to be 0.87 µM; on Δ MT1-MMP (Δ MMP-14) it was 0.023 µM; at MMP-2 (gelatinase A), 0.0048 µM; against MMP-9 (gelatinase B), 0.051 µM.

Consider `COc1ccc(S(=O)(=O)N2CC[C@@H](NC(C)=O)C[C@@H]2C(=O)NO)cc1` [Compound 66, (2R, 4R)-4-Acetylamino-2-hydroxyaminocarbonyl-1-(4-methoxybenzenesulfonyl)-piperidine], for which the half-maximal inhibitory concentration (IC50) in test [1] stood at 0.53 µM; at Δ MT1-MMP (Δ MMP-14), 0.0021 µM; against MMP-2 (gelatinase A), 0.0042 µM; at MMP-9 (gelatinase B) it was 0.0086 µM.

For `CC(C)CCC(=O)N[C@@H]1CCN(S(=O)(=O)c2ccc(-c3ccc([N+](=O)[O-])cc3)cc2)[C@@H](C(=O)NO)C1` [Compound 67, (2R, 4R)-2-Hydroxyaminocarbonyl-4-(4-methylpentanoylamino)-1-[4-(4-nitrophenyl)benzenesulfonyl]-piperidine], the IC50 in test [1] was determined as 1.2 µM; at Δ MT1-MMP (Δ MMP-14), 1.5 µM; against MMP-2 (gelatinase A), 0.022 µM; against MMP-9 (gelatinase B) it was 0.036 µM.

For the compound `CC(C)CCCN[C@@H]1CCN(S(=O)(=O)c2cccs2)[C@@H](C(=O)NO)C1` [Compound 70, (2R, 4R)-2-Hydroxyaminocarbonyl-4-(4-methylpentylamino)-1-(2-thiophenesulfonyl)-piperidine], the IC50 in test [1] came to 5.6 µM; on Δ MT1-MMP (Δ MMP-14), 0.38 µM; on MMP-2 (gelatinase A), 0.74 µM; against MMP-9 (gelatinase B), 0.083 µM.

Take `CC(C)CCC(=O)N[C@@H]1CCN(S(=O)(=O)c2ccc(-c3ccc(Cl)cc3)cc2)[C@@H](C(=O)NO)C1` [Compound 71, (2R, 4R)-1-[4-(4-Chlorohenyl)benzenesulfonyl]-2-hydroxyaminocarbonyl-4-(4-methylpentanoylamino)-piperidine]: the IC50 in test [1] worked out at 0.64 µM; on Δ MT1-MMP (Δ MMP-14), 0.29 µM; against MMP-2 (gelatinase A) it was 0.019 µM; against MMP-9 (gelatinase B), 0.0034 µM.

On to `CC(=O)N[C@@H]1CCN(S(=O)(=O)c2ccc(-c3ccc(Cl)cc3)cc2)[C@@H](C(=O)NO)C1` [Compound 72, (2R, 4R)-4-Acetylamino-1-[4-(4-chlorohenyl)benzenesulfonyl]-2-hydroxyaminocarbonyl-piperidine], for which the IC50 was 0.037 µM in test [1], 0.023 µM on Δ MT1-MMP (Δ MMP-14), 0.003 µM on MMP-2 (gelatinase A) and 0.0011 µM against MMP-9 (gelatinase B).
